Source: US12247011B2, “Selective inhibitors of NLRP3 inflammasome” (NodThera Limited, priority 2017, dated 2025)
Counter-ions that a name gives are not always drawn.

The compounds below were run on IL-1β release upon NLRP3 activation in peripheral blood mononuclear cells (PBMC) (assay: PBMC IC50 Determination Assay). Conditions: Homo sapiens, PBMC, read-out: PBMC IC50.
Type: cell-based
With CN(C)Cc1cnn(C[C@@H](OC(=O)Nc2c3c(cc4c2CCC4)CCC3)C(=O)O)c1 [Compound 98, (2R)-3-{4-[(dimethylamino)methyl]-1H-pyrazol-1-yl}-2-{[(1,2,3,5,6,7-hexahydro-s-indacen-4-yl)carbamoyl]oxy}propanoic acid hydrochloride] the IC50 was 1 to 10 µM.

Same assay, conditions: Homo sapiens; LPS-primed PBMC, 30 min compound, stimulated with ATP (5 mM) or nigericin (10 μM) for 1 h; IL-1β ELISA; read-out: PBMC IC50
Work on CCOC(=O)[C@@H](Cn1cnc(C#N)c1)OC(=O)Nc1c2c(cc3c1CCC3)CCC2 [Compound 89, Ethyl (2R)-3-(4-cyano-1H-imidazol-1-yl)-2-{[(1,2,3,5,6,7-hexahydro-s-indacen-4-yl)carbamoyl]oxy}propanoate] yielded an IC50 of 0.1 to 1 µM.
CCOC(=O)[C@@H](Cn1cncc1C#N)OC(=O)Nc1c2c(cc3c1CCC3)CCC2 [Compound 90, Ethyl (2R)-3-(5-cyano-1H-imidazol-1-yl)-2-{[(1,2,3,5,6,7-hexahydro-s-indacen-4-yl)carbamoyl]oxy}propanoate] gave an IC50 of 1 to 10 µM.
Work on CCOC(=O)C(Cn1cccn1)OC(=O)Nc1c(C)cc(C(F)(F)F)cc1C (stereo not shown) [Compound 91, Ethyl 2-({[2,6-dimethyl-4-(trifluoromethyl)phenyl]carbamoyl}oxy)-3-(1H-pyrazol-1-yl)propanoate] yielded an IC50 of 1 to 10 µM.
CCOC(=O)C(Cn1cc(OC)cn1)OC(=O)Nc1c2c(cc3c1CCC3)CCC2 (stereo not shown) [Compound 92, Ethyl 2-{[(1,2,3,5,6,7-hexahydro-s-indacen-4-yl)carbamoyl]oxy}-3-(4-methoxy-1H-pyrazol-1-yl)propanoate] showed an IC50 of 0.1 to 1 µM.
CCOC[C@@H](OC(=O)Nc1c2c(cc3c1CCC3)CCC2)C(=O)OCC [Compound 95, Ethyl (2R)-3-ethoxy-2-{[(1,2,3,5,6,7-hexahydro-s-indacen-4-yl)carbamoyl]oxy}propanoate] was tested, and the IC50 was 0.1 to 1 µM.
CCOC(=O)[C@@H](Cn1ccc(C#N)n1)OC(=O)Nc1c2c(cc3c1CCC3)CCC2 [Compound 96, Ethyl (2R)-3-(3-cyano-1H-pyrazol-1-yl)-2-{[(1,2,3,5,6,7-hexahydro-s-indacen-4-yl)carbamoyl]oxy}propanoate] gave an IC50 of 0.1 to 1 µM.
Work on CCOC(=O)[C@@H](Cn1cc(C(F)(F)F)cn1)OC(=O)Nc1c2c(cc3c1CCC3)CCC2 [Compound 97, Ethyl (2R)-2-{[(1,2,3,5,6,7-hexahydro-s-indacen-4-yl)carbamoyl]oxy}-3-[4-(trifluoromethyl)-1H-pyrazol-1-yl]propanoate] yielded an IC50 of 0.1 to 1 µM.
Compound CCOC(=O)C(Cn1cccn1)OC(=O)Nc1c(C)csc1C (stereo not shown) [Compound 99, Ethyl 2-{[(2,4-dimethylthiophen-3-yl)carbamoyl]oxy}-3-(1H-pyrazol-1-yl)propanoate] has an IC50 of 0.1 to 1 µM.
With CCOC(=O)C(Cn1cccn1)OC(=O)Nc1c2c(cc3c1OCC3)OCC2 (stereo not shown) [Compound 100, Ethyl 2-[({4,10-dioxatricyclo[7.3.0.0^3,7]dodeca-1,3(7),8-trien-2-yl}carbamoyl)oxy]-3-(1H-pyrazol-1-yl)propanoate] the IC50 was 1 to 10 µM.
In the case of CCOC(=O)[C@@H](COCCOC)OC(=O)Nc1c2c(cc3c1CCC3)CCC2 [Compound 101, Ethyl (2R)-2-{[(1,2,3,5,6,7-hexahydro-indacen-4-yl)carbamoyl]oxy}-3-(2-methoxyethoxy)propanoate], the IC50 is reported as 0.1 to 1 µM.
Work on CCOC(=O)[C@@H](COC1CCOCC1)OC(=O)Nc1c2c(cc3c1CCC3)CCC2 [Compound 102, Ethyl (2R)-2-{[(1,2,3,5,6,7-hexahydro-s-indacen-4-yl)carbamoyl]oxy}-3-(oxan-4-yloxy)propanoate] yielded an IC50 of 0.1 to 1 µM.
Work on CCOC(=O)[C@@H](Cn1ncnc1C)OC(=O)Nc1c2c(cc3c1CCC3)CCC2 [Compound 103, Ethyl (2R)-2-{[(1,2,3,5,6,7-hexahydro-s-indacen-4-yl)carbamoyl]oxy}-3-(5-methyl-1H-1,2,4-triazol-1-yl)propanoate] yielded an IC50 of 0.01 to 0.1 µM.
CCOC(=O)[C@@H](COC(C)C)OC(=O)Nc1c2c(cc3c1CCC3)CCC2 [Compound 104, Ethyl (2R)-2-{[(1,2,3,5,6,7-hexahydro-s-indacen-4-yl)carbamoyl]oxy}-3-(propan-2-yloxy)propanoate] was tested, and the IC50 was 1 to 10 µM.
Work on CCOC(=O)[C@@H](Cn1cnc(C)n1)OC(=O)Nc1c2c(cc3c1CCC3)CCC2 [Compound 105, Ethyl (2R)-2-{[(1,2,3,5,6,7-hexahydro-s-indacen-4-yl)carbamoyl]oxy}-3-(3-methyl-1H-1,2,4-triazol-1-yl)propanoate] yielded an IC50 of 0.01 to 0.1 µM.
O=C(Nc1c2c(cc3c1CCC3)CCC2)O[C@H](Cc1ncccn1)C(=O)O [Compound 106, (2R)-2-{[(1,2,3,5,6,7-hexahydro-s-indacen-4-yl)carbamoyl]oxy}-3-(pyrimidin-2-yl)propanoic acid] gave an IC50 of 0.1 to 1 µM.
In the case of O=C(Nc1c2c(cc3c1CCC3)CCC2)O[C@H](Cc1cnccn1)C(=O)O [Compound 109, (2R)-2-{[(1,2,3,5,6,7-hexahydro-s-indacen-4-yl)carbamoyl]oxy}-3-(pyrazin-2-yl)propanoic acid], the IC50 is reported as 0.1 to 1 µM.
In the case of O=C(Nc1c2c(cc3c1CCC3)CCC2)O[C@H](Cc1cnccn1)C(=O)OC1CCCC1 [Compound 111, Cyclopentyl (2R)-2-{[(1,2,3,5,6,7-hexahydro-s-indacen-4-yl)carbamoyl]oxy}-3-(pyrazin-2-yl)propanoate], the IC50 is reported as < 0.01 µM.
N#Cc1cnn(C[C@@H](OC(=O)Nc2c3c(cc4c2CCC4)CCC3)C(=O)OC2CCCC2)c1 [Compound 113, Cyclopentyl (2R)-3-(4-cyano-1H-pyrazol-1-yl)-2-{[(1,2,3,5,6,7-hexahydro-s-indacen-4-yl)carbamoyl]oxy}propanoate] was tested, and the IC50 was < 0.01 µM.
Compound O=C(Nc1c2c(cc3c1CCC3)CCC2)O[C@H](Cn1cncn1)C(=O)O [Compound 114, (2R)-2-{[(1,2,3,5,6,7-hexahydro-s-indacen-4-yl)carbamoyl]oxy}-3-(1H-1,2,4-triazol-1-yl)propanoic acid] has an IC50 of 0.1 to 1 µM.
For O=C(Nc1c2c(cc3c1CCC3)CCC2)O[C@H](Cn1cncn1)C(=O)OC1CCCC1 [Compound 116, Cyclopentyl (2R)-2-{[(1,2,3,5,6,7-hexahydro-s-indacen-4-yl)carbamoyl]oxy}-3-(1H-1,2,4-triazol-1-yl)propanoate], the IC50 was < 0.01 µM.
For Cc1cncc(CC(OC(=O)Nc2c3c(cc4c2CCC4)CCC3)C(=O)OC(C)C)n1 (stereo not shown) [Compound 117, Propan-2-yl 2-{[(1,2,3,5,6,7-hexahydro-s-indacen-4-yl)carbamoyl]oxy}-3-(6-methylpyrazin-2-yl)propanoate], the IC50 was < 0.01 µM.
CC1CCCC(NC(=O)OC(Cc2ncccn2)C(=O)OC(C)C)C1 (stereo not shown) [Compound 118, Propan-2-yl 2-{[(3-methylcyclohexyl)carbamoyl]oxy}-3-(pyrimidin-2-yl)propanoate] gave an IC50 of 1 to 10 µM.
CC(C)OC(=O)C(Cc1cnc(C#N)cn1)OC(=O)Nc1c2c(cc3c1CCC3)CCC2 (stereo not shown) [Compound 119, Propan-2-yl 3-(5-cyanopyrazin-2-yl)-2-{[(1,2,3,5,6,7-hexahydro-s-indacen-4-yl)carbamoyl]oxy}propanoate] was tested, and the IC50 was < 0.01 µM.
Compound Cc1nccc(CC(OC(=O)Nc2c3c(cc4c2CCC4)CCC3)C(=O)OC(C)C)n1 (stereo not shown) [Compound 120, Propan-2-yl 2-{[(1,2,3,5,6,7-hexahydro-s-indacen-4-yl)carbamoyl]oxy}-3-(2-methylpyrimidin-4-yl)propanoate] has an IC50 of 0.01 to 0.1 µM.
Cc1cnc(CC(OC(=O)Nc2c3c(cc4c2CCC4)CCC3)C(=O)OC(C)C)cn1 (stereo not shown) [Compound 121, Propan-2-yl 2-{[(1,2,3,5,6,7-hexahydro-s-indacen-4-yl)carbamoyl]oxy}-3-(5-methylpyrazin-2-yl)propanoate] was tested, and the IC50 was 0.01 to 0.1 µM.
With CC(C)OC(=O)C(Cc1ncccn1)OC(=O)NC1(C)CCCCC1 (stereo not shown) [Compound 122, Propan-2-yl 2-{[(1-methylcyclohexyl)carbamoyl]oxy}-3-(pyrimidin-2-yl)propanoate] the IC50 was > 10 µM.
CC(C)OC(=O)C(Cc1ncccn1)OC(=O)Nc1c(F)cccc1Cl (stereo not shown) [Compound 123, Propan-2-yl 2-{[(2-chloro-6-fluorophenyl)carbamoyl]oxy}-3-(pyrimidin-2-yl)propanoate] gave an IC50 of 0.1 to 1 µM.
In the case of CC(C)OC(=O)C(Cc1ncccn1)OC(=O)Nc1c(F)cccc1F (stereo not shown) [Compound 124, Propan-2-yl 2-{[(2,6-difluorophenyl)carbamoyl]oxy}-3-(pyrimidin-2-yl)propanoate], the IC50 is reported as 0.1 to 1 µM.
With CC(C)OC(=O)C(Cc1ncccn1)OC(=O)Nc1c(Cl)cccc1Cl (stereo not shown) [Compound 125, Propan-2-yl 2-{[(2,6-dichlorophenyl)carbamoyl]oxy}-3-(pyrimidin-2-yl)propanoate] the IC50 was 1 to 10 µM.
CC(C)OC(=O)[C@@H](Cn1cnc(C#N)n1)OC(=O)Nc1c2c(cc3c1CCC3)CCC2 [Compound 126, Propan-2-yl (2R)-3-(3-cyano-1H-1,2,4-triazol-1-yl)-2-{[(1,2,3,5,6,7-hexahydro-s-indacen-4-yl)carbamoyl]oxy}propanoate] showed an IC50 of 0.01 to 0.1 µM.
CC(C)OC(=O)C(Cc1ncccn1)OC(=O)NC12CCC(CC1)CC2 (stereo not shown) [Compound 127, Propan-2-yl 2-[({bicyclo[2.2.2]octan-1-yl}carbamoyl)oxy]-3-(pyrimidin-2-yl)propanoate] gave an IC50 of 1 to 10 µM.
For CC(C)OC(=O)C(Cc1ccnnc1)OC(=O)Nc1c2c(cc3c1CCC3)CCC2 (stereo not shown) [Compound 128, Propan-2-yl 2-{[(1,2,3,5,6,7-hexahydro-s-indacen-4-yl)carbamoyl]oxy}-3-(pyridazin-4-yl)propanoate], the IC50 was 0.1 to 1 µM.
CC(C)OC(=O)C(Cc1ncc(C#N)cn1)OC(=O)Nc1c2c(cc3c1CCC3)CCC2 (stereo not shown) [Compound 130, Propan-2-yl 3-(5-cyanopyrimidin-2-yl)-2-{[(1,2,3,5,6,7-hexahydro-s-indacen-4-yl)carbamoyl]oxy}propanoate] was tested, and the IC50 was 0.01 to 0.1 µM.
